{"source": "patent US10160705B2", "about": "“Class of HDAC inhibitors expands the renal progenitor cells population and improves the rate of recovery from acute kidney injury” (University of Pittsburgh—Of the Commonwealth System of …, priority 2011, dated 2018)", "test_system": "human HDACs", "test": "Fluorescence histone deacetylation assay with HeLa cell nuclear extract", "format": "biochemical", "experimental": "To evaluate this in vitro, the deacetylation of a fluorescent peptide substrate was measured in the presence of human HDACs.\nIn vitro HDAC activity assays were performed using a fluorescence HDAC assay kit (Active Motif) according to the manufacturer's instructions. For maintaining compound solubility at 5 mM, the final DMSO concentration in all assay wells was increased to 5%. Fluorescence was detected using an M5 Plate Reader ([…])"}
{"smiles": "O=C(O)CCCSc1ccccc1", "note": "[UPHD-00020, 4-(phenylthio)butanoic acid (PTBA)]", "values": [{"measurement": "HDAC activity elicited by 10 μg HeLa extract, percent of the control value", "setting": "5 mM compound", "result": 30, "unit": "%"}, {"measurement": "reduction of HDAC activity", "setting": "millimolar concentrations", "result": 70, "unit": "%"}]}
